From PMC9304322, “Targeting retinoic acid receptor alpha-corepressor interaction activates chaperone-mediated autophagy and protects against retinal degeneration” (Nature Communications, 2022)
Where “and” joins values, the source holds several entries; their conditions need not be identical. Identical values can stand only once. Where no end group is shown, it is not given here. The star is where a group is joined. FITC = O=C1OC2(c3ccc(O)cc3Oc3cc(O)ccc32)c2ccc(NC(=S)*)cc21; Ahx = NCCCCCC(=O)O

What was measured:
NIH3T3 cells = assay: Microarray transcriptional changes; format: cell-based, mouse; conditions: NIH3T3; 20μM for 24 h
Method: Total RNA of the treated cells was extracted using TRIzol (Invitrogen) and purified with RNeasy chromatography (Qiagen). Cy3-labeled RNA (0.6 μg) from each condition was hybridized to Agilent Mouse 8x60K. Data were processed using the oligo package and normalized using Robust Multiarray Average (RMA) method. […] Pathway analysis was performed using the STRING database ([…]).

rd10 mice = assay: rd10 mice, single intravitreal injection, retina histology; format: in vivo, mouse; conditions: rd10 mice; individual values and Mean CA77
Method: C57BL/6 J mice wild-type (WT) and homozygous for the Pde6 mutation (rd10 mouse model of retinal degeneration) were obtained from The Jackson Laboratory and experiments were performed at the age indicated in each part of the study. C57BL/6 KFERQ-Dendra mice were generated by back-crossing FVB KFERQ-Dendra mice with wild-type C57BL/6 mice for 8 generations. Both male and female animals were used in this study in equally distribution groups. However, results from both sexes were pooled, because of absence of significant differences in any of the parameters analyzed after statistical analysis with a mixed model of two-way ANOVA sex and treatment as independent variables and the corresponding measure as dependent variable. All animals were housed in a barrier-controlled facility (19–23 °C 30–60% relative humidity; 12 h light/dark cycle) with ad libitum access to standard chow pellets (protein 19 gm%/carbohydrate 67 gm%/fat 4 gm%) and water. For animal administration of CA compounds, a formula containing 30% PEG 400 (Sigma, #8.0745), 65% of 5% glucose solution, 5% Tween 80 (Sigma, #P1754) was used to dissolve them. CA compounds were prepared freshly by adding 5% DMSO and sonicating for 1 h. Treatment of KFERQ-Dendra mice with the CA compounds was done at 4 months of age by i.p. daily injection of 30 mg/kg bw or vehicle for three consecutive days and tissues collected 6 h after the last injection. In the case of rd10 mice, animals were daily injected from P18 to P25 with CA77 (40 mg/kg bw). In the case of intravitreal administration, a single intravitreal injection was applied at P18 with CA77 (40 µM) in DMSO/PBS and the contralateral eye was injected with PBS and DMSO at same concentration. At P26, mice were sacrificed and eyes fixed overnight with 4% PFA (Sigma, #P6148) in PBS at 4 °C for immunofluorescence or retinas dissected and immediately frozen for biochemistry. Distribution of animals in the vehicle or treatment group was done randomly. ICR (CD-1) outbred 3 months old male mice from ENVIGO were used for the pharmacokinetic studies (see pharmacokinetic section for housing and handling details). All animal studies and procedures complied with ethical regulations, were performed in accordance with the European Union guidelines and the ARVO Statement for the Use of Animals in Ophthalmic and Vision Research and were approved by the Institutional Animal Care and Use Committee at the Albert Einstein College of Medicine, the CSIC Bioetica Comite and approved by the Comunidad de Madrid, PROEX232/17.
12 μm cryosections and immunofluorescence in retinal sections[10] after orienting retinas with a dorsal mark, so comparisons were performed taking into account the precise retinal area. Primary antibodies used in this study were visual (rod) arrestin, cone arrestin, Opsin R/G, transducin, GFAP, N-CoR1. Sections were visualized by confocal microscopy (TCS SP5; Leica Microsystems).
For ONL thickness quantification, DAPI images were taken at 40X in a fluorescence microscope Multidimensional system Leica AF6000 LX coupled to DMI600B microscope and Hamamatsu CCD 9100-O2 camera. At least two sections per animal were analyzed, preferably central sections. Eight images per retina equally distributed along the retina were acquired. Three measures were taken per image and ratio ONL/INL quantified with ImageJ tools. Leica LAS-X (3.7.4.23463) was used for image acquisition and ImageJ (v.2.1.0) was used for image processing. For OS length measures, fixed positions common to all pictures were considered and OS length was measured using ImageJ straight line tool.
Eyes were enucleated, put in a plate with cold PBS and an incision was made under the microscope to let the fixative enter into the eye. […]

N-CoR1 and RARα = biological target: T1, N-CoR1 and RARα (Mus musculus, UniProt P11416); assay: Streptavidin pulldown of biotin-CA, immunoblot for N-CoR1 and RARα; format: cell-based; conditions: NIH3T3, 10 μM for 24 h
T1 construct: endogenous in cells; host or cells: NIH3T3

[1] = tested on: NIH3T3 cells stably expressing the mCherry-GFP-LC3 reporter; assay: Macroautophagy activity, mCherry-GFP-LC3 reporter; format: cell-based, mouse
Method: Cells were transduced with a lentiviral vector expressing mCherry-GFP-LC3[35], fixed and flux determined as the conversion of dual fluorescence puncta (autophagosomes) into only red fluorescent puncta (autolysosomes). Flux was also measured by immunoblot for LC3 in cells incubated for 6 h with 20 mM NH4Cl/100 μM leupeptin, by discounting the intensity of LC3 in non-treated cells from that in cells treated with the inhibitors.

[2] = biological target: T2, ligand binding domain (LBD) of the human RARα (residues 176-421) (human, UniProt P10276 176-421); assay: fluorescence polarisation; FITC-N-CoR1 (5 nM) with serial two-fold dilutions of RARα LBD from 10 uM, without or with small molecules (10 uM: BMS, CA39, CA77); 20 mM Tris-HCl pH 7.5, 150 mM NaCl, 1 mM EDTA, 5 mM DTT, 10% glycerol; read at 30 min; conditions: both partners purified
T2 construct: also called RARα LBD; retinoic acid receptor alpha; source: E. coli BL21(DE3) RIL, purified (Ni-NTA, ULP1 cleavage, subtractive Ni-NTA, Superdex 200); not shown: His6-SUMO, N-terminal, cleaved
T2 sequence (looked up): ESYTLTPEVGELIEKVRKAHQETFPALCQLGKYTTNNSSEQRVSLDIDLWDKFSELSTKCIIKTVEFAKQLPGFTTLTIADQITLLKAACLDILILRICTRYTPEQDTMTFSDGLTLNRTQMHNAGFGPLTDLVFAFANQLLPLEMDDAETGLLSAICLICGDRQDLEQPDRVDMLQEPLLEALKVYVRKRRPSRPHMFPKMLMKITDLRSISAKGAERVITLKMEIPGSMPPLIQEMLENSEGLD

[3] = c0 = 2 (axis unlabelled; ANOVA calls row factor Time)

T1 sequence (P11416 whole entry): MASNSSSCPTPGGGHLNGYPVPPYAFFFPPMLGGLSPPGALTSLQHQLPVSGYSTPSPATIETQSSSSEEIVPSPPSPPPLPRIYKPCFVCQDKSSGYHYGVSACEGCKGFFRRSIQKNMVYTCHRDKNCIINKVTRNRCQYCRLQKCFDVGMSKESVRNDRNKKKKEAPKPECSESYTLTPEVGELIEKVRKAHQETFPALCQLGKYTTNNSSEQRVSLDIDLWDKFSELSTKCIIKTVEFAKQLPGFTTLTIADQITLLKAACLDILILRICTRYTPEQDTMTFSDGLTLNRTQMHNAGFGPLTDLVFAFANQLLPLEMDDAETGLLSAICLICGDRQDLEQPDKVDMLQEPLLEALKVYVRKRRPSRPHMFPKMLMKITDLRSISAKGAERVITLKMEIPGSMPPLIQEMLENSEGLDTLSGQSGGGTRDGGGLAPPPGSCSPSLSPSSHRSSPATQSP
T1 sequence (Q60974 whole entry partner): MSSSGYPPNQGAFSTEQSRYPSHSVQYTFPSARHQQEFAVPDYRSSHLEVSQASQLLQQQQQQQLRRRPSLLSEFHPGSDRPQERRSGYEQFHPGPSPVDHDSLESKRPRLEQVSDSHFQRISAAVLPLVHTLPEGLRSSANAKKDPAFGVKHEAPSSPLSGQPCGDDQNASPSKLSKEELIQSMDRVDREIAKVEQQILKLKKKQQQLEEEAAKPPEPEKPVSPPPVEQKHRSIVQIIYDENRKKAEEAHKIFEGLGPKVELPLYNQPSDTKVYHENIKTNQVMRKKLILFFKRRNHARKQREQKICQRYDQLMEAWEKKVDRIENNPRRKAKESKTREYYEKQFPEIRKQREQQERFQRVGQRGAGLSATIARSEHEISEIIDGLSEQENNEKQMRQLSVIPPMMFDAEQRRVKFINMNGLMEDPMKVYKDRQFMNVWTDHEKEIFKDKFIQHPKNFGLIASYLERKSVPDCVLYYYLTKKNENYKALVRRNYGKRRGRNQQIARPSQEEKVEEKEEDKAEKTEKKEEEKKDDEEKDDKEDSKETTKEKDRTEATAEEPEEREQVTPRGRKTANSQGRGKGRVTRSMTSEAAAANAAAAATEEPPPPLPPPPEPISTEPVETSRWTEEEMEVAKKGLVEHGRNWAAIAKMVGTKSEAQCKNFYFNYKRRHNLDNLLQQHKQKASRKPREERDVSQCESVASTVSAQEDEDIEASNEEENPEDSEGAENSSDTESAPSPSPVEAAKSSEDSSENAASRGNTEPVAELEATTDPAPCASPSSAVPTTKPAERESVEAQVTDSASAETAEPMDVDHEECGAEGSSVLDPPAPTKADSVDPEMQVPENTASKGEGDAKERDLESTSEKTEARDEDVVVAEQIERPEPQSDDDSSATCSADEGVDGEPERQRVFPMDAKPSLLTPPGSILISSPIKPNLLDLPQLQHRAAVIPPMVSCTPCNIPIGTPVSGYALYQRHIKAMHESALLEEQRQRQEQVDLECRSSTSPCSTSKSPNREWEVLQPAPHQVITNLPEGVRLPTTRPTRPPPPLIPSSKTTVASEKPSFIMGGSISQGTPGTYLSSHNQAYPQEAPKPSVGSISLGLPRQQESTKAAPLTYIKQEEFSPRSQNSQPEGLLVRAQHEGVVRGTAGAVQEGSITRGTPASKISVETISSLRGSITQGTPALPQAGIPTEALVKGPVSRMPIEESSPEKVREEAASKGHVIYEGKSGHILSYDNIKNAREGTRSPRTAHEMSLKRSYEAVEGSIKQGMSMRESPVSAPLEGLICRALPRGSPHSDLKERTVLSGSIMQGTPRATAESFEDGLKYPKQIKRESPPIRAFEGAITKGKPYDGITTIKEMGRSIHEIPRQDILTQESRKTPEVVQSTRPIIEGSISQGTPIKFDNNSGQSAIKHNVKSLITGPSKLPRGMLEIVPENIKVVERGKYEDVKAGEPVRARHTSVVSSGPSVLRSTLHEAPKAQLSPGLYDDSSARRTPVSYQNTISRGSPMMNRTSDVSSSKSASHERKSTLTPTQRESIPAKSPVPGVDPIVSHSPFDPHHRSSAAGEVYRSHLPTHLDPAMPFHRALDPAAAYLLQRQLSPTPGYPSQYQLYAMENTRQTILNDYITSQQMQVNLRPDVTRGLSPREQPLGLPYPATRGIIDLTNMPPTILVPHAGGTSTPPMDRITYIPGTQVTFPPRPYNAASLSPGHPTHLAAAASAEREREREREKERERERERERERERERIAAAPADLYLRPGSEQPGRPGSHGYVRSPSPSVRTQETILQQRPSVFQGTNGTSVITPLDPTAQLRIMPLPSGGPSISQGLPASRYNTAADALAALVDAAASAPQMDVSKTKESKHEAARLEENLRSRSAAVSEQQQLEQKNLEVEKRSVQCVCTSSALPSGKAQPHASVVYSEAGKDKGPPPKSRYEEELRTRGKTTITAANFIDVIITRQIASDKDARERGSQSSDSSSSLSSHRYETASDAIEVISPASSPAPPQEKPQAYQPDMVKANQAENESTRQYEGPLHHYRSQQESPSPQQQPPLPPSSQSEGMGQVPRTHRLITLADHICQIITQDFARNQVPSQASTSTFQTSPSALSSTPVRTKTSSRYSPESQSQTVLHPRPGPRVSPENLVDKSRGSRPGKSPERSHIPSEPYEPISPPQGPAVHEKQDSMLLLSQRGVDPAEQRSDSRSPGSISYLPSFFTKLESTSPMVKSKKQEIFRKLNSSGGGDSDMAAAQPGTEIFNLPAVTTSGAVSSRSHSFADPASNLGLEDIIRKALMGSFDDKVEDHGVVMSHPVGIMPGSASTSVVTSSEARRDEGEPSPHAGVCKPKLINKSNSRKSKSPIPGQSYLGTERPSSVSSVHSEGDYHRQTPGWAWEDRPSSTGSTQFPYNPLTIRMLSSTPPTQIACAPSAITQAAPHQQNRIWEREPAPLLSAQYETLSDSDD

CC1(C)CC=C(c2cnc3ccccc3c2)c2cc(C(=O)Nc3ccc(C(=O)O)cc3)ccc21 [BMS614, reference compound]
changes in the transcriptome (NIH3T3 cells): marked changes in the transcriptome

CC(=O)Nc1ccc(C2=Nc3ccc(Cl)cc3OC2)cc1 [CA 77]
Fig. 7a, retinal measurement by eccentricity, eccentricity 1 (rd10 mice): 0.2752 and 0.2828 and 0.2675 and 0.4954 and 0.393 and 0.3603 and 0.3938
Fig. 7a, retinal measurement by eccentricity, eccentricity 2 (rd10 mice): 0.3254 and 0.2696 and 0.3495 and 0.2864 and 0.4558 and 0.3792 and 0.723
Fig. 7a, retinal measurement by eccentricity, eccentricity 3 (rd10 mice): 0.3333 and 0.3595 and 0.4443 and 0.4969 and 0.8558 and 0.7642 and 0.8417
Fig. 7a, retinal measurement by eccentricity, eccentricity 4 (rd10 mice): 0.6989 and 0.5535 and 0.938 and 1.0799 and 0.9103 and 0.9911 and 0.7623
Fig. 7a, retinal measurement by eccentricity, eccentricity -1 (rd10 mice): 0.7616 and 0.2157 and 0.1911 and 0.3575 and 0.223 and 0.305
Fig. 7a, retinal measurement by eccentricity, eccentricity -2 (rd10 mice): 0.2825 and 0.2446 and 0.25 and 0.4552 and 0.7496 and 0.1825 and 0.2782
Fig. 7a, retinal measurement by eccentricity, eccentricity -3 (rd10 mice): 0.4178 and 0.4298 and 0.7568 and 0.9291 and 0.9244 and 0.276 and 0.3979

O=C(CCCCC1SCC2NC(=O)NC21)NCCCOCCOCCOCCCNC(=O)c1ccc(C2=Nc3ccc(Cl)cc3OC2)cc1 (stereo not shown) [biotinylated CA compound]
co-immunoprecipitation of cellular RARα and N-CoR1 (N-CoR1 and RARα): could be co-immunoprecipitated

CO[C@H]1C[C@@H]2CC[C@@H](C)[C@@](O)(O2)C(=O)C(=O)N2CCCC[C@H]2C(=O)O[C@H]([C@H](C)C[C@@H]2CC[C@@H](O)[C@H](OC)C2)CC(=O)[C@H](C)/C=C(\C)[C@@H](O)[C@@H](OC)C(=O)[C@H](C)C[C@H](C)/C=C/C=C/C=C/1C [rapamycin, reference compound]
APG (Fig. S3e) [1, 3]: 1.605
AUT (Fig. S3e) [1, 3]: 1.965
AV (Fig. S3e) [1, 3]: 3.57
APG (Fig. S3e) ([1]; c0 = 5 (axis unlabelled)): 2.415
AUT (Fig. S3e) ([1]; c0 = 5 (axis unlabelled)): 2.129
AV (Fig. S3e) ([1]; c0 = 5 (axis unlabelled)): 4.544
APG (Fig. S3e) ([1]; c0 = 10 (axis unlabelled)): 3.3128
AUT (Fig. S3e) ([1]; c0 = 10 (axis unlabelled)): 3.752
AV (Fig. S3e) ([1]; c0 = 10 (axis unlabelled)): 7.064
APG (Fig. S3e) ([1]; c0 = 20 (axis unlabelled)): 5.184
AUT (Fig. S3e) ([1]; c0 = 20 (axis unlabelled)): 4.731
AV (Fig. S3e) ([1]; c0 = 20 (axis unlabelled)): 9.915
APG (Fig. S3e) ([1]; c0 = 30 (axis unlabelled)): 4.9183
AUT (Fig. S3e) ([1]; c0 = 30 (axis unlabelled)): 11.4046
AV (Fig. S3e) ([1]; c0 = 30 (axis unlabelled)): 16.3229

B1: fluorescein-tagged peptide of N-CoR1, FITC-Ahx-RLITLADHICQIITQDFAR (peptide)
peptide: {FITC-Ahx}-RLITLADHICQIITQDFAR
notes: peptide of nuclear receptor corepressor 1 (N-CoR1); also called FITC-N-CoR1; N-CoR1 peptide; source: synthetic peptide; bought: Genscript, purity > 95%
binding result [2]: binds
